Results reported in patent publication US12384776B2, “Compounds and uses thereof” (Foghorn Therapeutics Inc., priority 2019, dated 2025).
pIC50: −log10 of the molar value.

molecular target: BRD9 bromodomain (Homo sapiens (Human), UniProt Q9H8M2); test: BRD9 bromodomain TR-FRET competition binding assay
Description: Procedure: His-Flag-BRD9 (P133-K239; Swiss Prot Q9H8M2; SEQ ID NO:1 mgsshhhhhhenlyfq/gdykddddkgslevlfqg/[…] […]) was cloned, expressed, purified, and then treated with TEV protease. Cleaved His tag was removed by purification. The binding of a biotinylated small molecule ligand of BRD9 was assessed via the LANCE® TR-FRET platform (PerkinElmer), and the compounds were assayed for inhibitory activity against this interaction.
Results: A mixture of biotinylated-ligand and SureLight™ Allophycocyanin-Streptavidin (APC-SA, PerkinElmer AD0201) in 50 mM HEPES (pH 7.4), 50 mM NaCl, 1 mM TCEP (pH 7), 0.01% (v/v) Tween-20, 0.01% (w/v) bovine serum albumin was added to a white 384-well PerkinElmer Proxiplate Plus plate. DMSO or 3-fold serially diluted compounds were then added to the Proxiplate followed by addition of Flag-BRD9. After a 10-minute incubation at room temperature, Eu—W1024 anti-FLAG (PerkinElmer, AD0273) was added. The final reaction mixture that contained 3.75 nM biotinylated ligand, 3 nM Flag-BRD9, 7.5 nM SureLight™ Allophycocyanin-Streptavidin, and 0.2 nM Eu—W1024 anti-FLAG was incubated at room temperature for 90 minutes.
The plates were then read on a PerkinElmer Envision plate reader to determine the ratio of emission at 665 nm over 615 nm. […]

Chain of BRD9 bromodomain (Q9H8M2 133-239): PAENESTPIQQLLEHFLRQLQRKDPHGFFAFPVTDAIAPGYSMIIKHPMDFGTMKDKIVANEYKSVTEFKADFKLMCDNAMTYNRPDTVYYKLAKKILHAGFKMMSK

| Compound | pIC50 |
| --- | --- |
| COc1cc(-c2cn(C)c(=O)c3c2CCN(C)C3)cc(OC)c1CN(C)C [Compound B16, 4-[4-[(dimethylamino)methyl]-3,5-dimethoxyphenyl]-2,7-dimethyl-1,2,5,6,7,8-hexahydro-2,7-naphthyridin-1-one formic acid] | < 6.00 |
| CCNC(=O)N1CCc2c(-c3cc(OC)c(CN(C)C)c(OC)c3)cn(C)c(=O)c2C1 [Compound B5, 5-(4-((dimethylamino)methyl)-3,5-dimethoxyphenyl)-N-ethyl-7-methyl-8-oxo-3,4,7,8-tetrahydro-2,7-naphthyridine-2 (1H)-carboxamide] | > 8.00 |
| COc1cc(-c2cn(C)c(=O)c3c2CCN(C(N)=O)C3)cc(OC)c1CN(C)C [Compound B13, 5-[4-[(dimethylamino)methyl]-3,5-dimethoxyphenyl]-7-methyl-8-oxo-1,2,3,4,7,8-hexahydro-2,7-naphthyridine-2-carboxamide] | < 8.00 |
| COc1cc(-c2cn(C)c(=O)c3c2CCN(C(=O)NCCCCCC(=O)N[C@H](C(=O)N2C[C@H](O)C[C@H]2C(=O)NCc2ccc(-c4scnc4C)cc2)C(C)(C)C)C3)cc(OC)c1CN(C)C [Compound D36, (2S,4R)-1-[(2S)-2-[6-(5-[4-[(dimethylamino)methyl]-3,5-dimethoxyphenyl]-7-methyl-8-oxo-3,4-dihydro-1H-2,7-naphthyridine-2-carbonylamino)hexanamido]-3,3-dimethylbutanoyl]-4-hydroxy-N-[[4-(4-methyl-1,3-thiazol-5-yl)phenyl]methyl]pyrrolidine-2-carboxamide] | < 8.00 |
| CCOC(=O)N1CCc2c(-c3cc(OC)c(CN(C)C)c(OC)c3)cn(C)c(=O)c2C1 [Compound B11, ethyl 5-[4-[(dimethylamino)methyl]-3,5-dimethoxyphenyl]-7-methyl-8-oxo-1,2,3,4,7,8-hexahydro-2,7-naphthyridine-2-carboxylate] | < 6.00 |
| COc1cc(-c2cn(C)c(=O)c3c2CCN(C(=O)N(C)C)C3)cc(OC)c1CN(C)C [Compound B6, 5-(4-((dimethylamino)methyl)-3,5-dimethoxyphenyl)-N,N,7-trimethyl-8-oxo-3,4,7,8-tetrahydro-2,7-naphthyridine-2 (1H)-carboxamide] | < 7.00 |
| COc1cc(-c2cn(C)c(=O)c3c2CN(C(=O)N(C)C)CC3)cc(OC)c1CN(C)C [Compound B21, 8-[4-[(dimethylamino)methyl]-3,5-dimethoxyphenyl]-N,N,6-trimethyl-5-oxo-3,4-dihydro-1H-2,6-naphthyridine-2-carboxamide] | < 7.00 |
| CNC(=O)N1CCc2c(c(-c3cc(OC)c(CN(C)C)c(OC)c3)cn(C)c2=O)C1 [Compound B18, 8-[4-[(dimethylamino)methyl]-3,5-dimethoxyphenyl]-N,6-dimethyl-5-oxo-3,4-dihydro-1H-2,6-naphthyridine-2-carboxamide] | < 8.00 |
| CCC(=O)N1CCc2c(-c3cc(OC)c(CN(C)C)c(OC)c3)cn(C)c(=O)c2C1 [Compound B12] | < 6.00 |
| COc1cc(-c2cn(C)c(=O)c3c2CCN(C(=O)NC2CC2)C3)cc(OC)c1CN(C)C [Compound B8, N-cyclopropyl-5-(4-((dimethylamino)methyl)-3,5-dimethoxyphenyl)-7-methyl-8-oxo-3,4,7,8-tetrahydro-2,7-naphthyridine-2 (1H)-carboxamide] | < 8.00 |
| COc1cc(-c2cn(C)c(=O)c3c2CNC(C(=O)O)C3)cc(OC)c1CN(C)C (stereo not drawn) [Compound B2, 8-[4-[(dimethylamino)methyl]-3,5-dimethoxyphenyl]-6-methyl-5-oxo-1,2,3,4,5,6-hexahydro-2,6-naphthyridine-3-carboxylic acid] | < 6.00 |
| CNC(=O)C1Cc2c(c(-c3cc(OC)c(CN(C)C)c(OC)c3)cn(C)c2=O)CN1 (stereo not drawn) [Compound B3, 8-[4-[(dimethylamino)methyl]-3,5-dimethoxyphenyl]-N,6-dimethyl-5-oxo-1,2,3,4,5,6-hexahydro-2,6-naphthyridine-3-carboxamide] | < 6.00 |
